Source: US20260167927A1, “GLOMUS CELL-LIKE CELLS AND PRODUCTION METHOD THEREOF” (NATIONAL INSTITUTE OF ADVANCED INDUSTRIAL SCIENCE AND …, priority 2022, published 2026)

System: glomus cell-like cells
Experiment: ATP production by glomus cell-like cells in response to hypoxic stimulation with ion channel inhibitors
Type: cell-based, human
Conditions: for effect on ATP production in response to hypoxic stimulation: 2% O2, 10 to 30 minutes, vs KRB without inhibitor
Experimental: Glomus cell-like cells on days 16 to 19 of induction were used. With Krebs-Ringer buffer (KRB: 120 mM of NaCl, 5 mM of KCI, 25 mM of NaHCO3, 2.5 mM of CaCI2, 1.1 mM of MgCl2, 0.1% bovine serum albumin, 2.8 mM of glucose, pH 7.2), glomus cell-like cells were washed twice. After adding KRB, the cells were incubated in a hypoxic CO2 incubator (2% O2) for 10 to 30 minutes. The supernatant was collected, and then ATP was measured using the ATP Determination Kit (Thermo Fisher Scientific: A22066). Cells were lysed in RIPA buffer (FUJIFILM Wako Pure Chemical Corporation: 182-02451), and the total protein content was determined using a Pierce™ BCA Protein Assay Kit (Thermo Fisher Scientific: 23225). ATP measurement results were corrected according to the total protein content.
Using KRB containing the K^+ channel inhibitor tetraethylammonium chloride (FUJIFILM Wako Pure Chemical Corporation: 206-04501) (final concentration: 5 mM), the Ca^2+ channel inhibitor nifedipine (FUJIFILM Wako Pure Chemical Corporation: 141-05783) (final concentration: 5 μM), or the Na^+ channel inhibitor lidocaine (FUJIFILM Wako Pure Chemical Corporation: 120-02691) (final concentration: 1 μM), cells were subjected to hypoxic stimulation using the procedure described in (3-1) above, and the amount of ATP production was analyzed. KRB without ion channel inhibitors was used as a control to analyze ATP production similarly.

With CCN(CC)CC(=O)Nc1c(C)cccc1C [lidocaine, Lidocaine] the “effect on ATP production in response to hypoxic stimulation” value (lidocaine 1 μM in KRB) was “inhibitory effect”.

CC[N+](CC)(CC)CC.[Cl-] [tetraethylammonium chloride] was tested, and the “effect on ATP production in response to hypoxic stimulation” value (tetraethylammonium chloride 5 mM in KRB) was “promoting effect”.

For apyrase, the “ATP detected after hypoxic stimulation” value (apyrase (ATPase) 2 U/mL added, FIG. 11) was “no ATP was detected”.
